The results in this text go back to PubChem BioAssay AID1671416.

SMILES strings stand for the structures.

For the assay, the target named is Proto-oncogene tyrosine-protein kinase Src (Homo sapiens) (UniProt P12931). Put plainly: PubChem AID 1671416. The conditions noted are these: Z'-LYTE FRET kinase activity, recombinant SRC.

By IC50 is commonly meant the midpoint of a concentration-inhibition curve.

Sequence of Proto-oncogene tyrosine-protein kinase Src (Homo sapiens) (P12931 whole entry, looked up): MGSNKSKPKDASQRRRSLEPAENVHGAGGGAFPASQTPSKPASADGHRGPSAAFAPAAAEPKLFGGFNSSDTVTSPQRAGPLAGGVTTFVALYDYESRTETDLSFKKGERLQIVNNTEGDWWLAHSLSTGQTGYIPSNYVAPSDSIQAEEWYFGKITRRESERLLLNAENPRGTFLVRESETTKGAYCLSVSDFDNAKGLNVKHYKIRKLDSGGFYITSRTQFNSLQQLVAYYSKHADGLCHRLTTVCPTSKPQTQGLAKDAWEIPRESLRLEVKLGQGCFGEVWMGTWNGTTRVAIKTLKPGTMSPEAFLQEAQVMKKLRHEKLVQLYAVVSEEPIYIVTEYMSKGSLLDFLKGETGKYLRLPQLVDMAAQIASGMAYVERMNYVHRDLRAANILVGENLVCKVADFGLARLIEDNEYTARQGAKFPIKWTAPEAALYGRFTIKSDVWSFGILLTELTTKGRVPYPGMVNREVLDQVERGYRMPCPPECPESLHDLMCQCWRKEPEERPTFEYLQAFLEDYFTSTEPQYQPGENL

In the case of `COc1cc2ncnc(Nc3cccc(Cl)c3)c2cc1OC`, the IC50 was 2.45 µM.
